# According to article PMC8689225, “Cardiac ryanodine receptor N-terminal region biosensors identify novel inhibitors via FRET-based high-throughput screening” (The Journal of Biological Chemistry, 2021):
# Experiments:
# RyR2 = target: T1, RyR2 (Mus musculus, UniProt E9Q401); experiment: Ca2+ sparks in saponin-permeabilized ventricular cardiomyocytes; type: cell-based
# T1 construct: endogenous in cells; host or cells: ventricular cardiomyocytes of male C57BL/6J mice, saponin-permeabilized
# Procedure: Mouse ventricular cardiomyocytes were isolated enzymatically from hearts of male C57BL/6J mouse (10–12 weeks old, Jackson Laboratory) as previously described with minor modifications ([66]). Briefly, mice were injected with heparin (500 U/kg body weight) and anesthetized with isoflurane (2 to 5%) to a verified deep surgical plane, whereupon the heart was excised, resulting in euthanasia by exsanguination. Hearts were excised and retrogradely perfused with constant flow on a Langendorff apparatus (37 °C) with Ca^2+-free normal Tyrode’s solution, gassed with 100% O2. Collagenase type II (Worthington Biochemical Co) and protease type XIV (Sigma-Aldrich) were used for enzymatic digestion. Ventricular cardiomyocytes were then mechanically dissociated and filtered through a nylon mesh and allowed to sediment in Tyrode’s solution. The [Ca^2+] of the Tyrode’s solution was then raised to 0.5 mM in stepwise fashion, and cardiomyocytes were kept at room temperature in this solution until use. All animal handling and laboratory procedures were in accordance with the approved protocols of the University of California, Davis Institutional Animal Care and Use Committee conforming to the Guide for the Care and Use of Laboratory Animals published by the US National Institutes of Health (eighth edition, 2011).
# Ca^2+ activity was imaged via confocal microscopy (Bio-Rad, Radiance 2100, 40× objective) in the line scan mode (166 lines/s; ex 488 nm, em >505 nm). Ca^2+ sparks were recorded from ventricular cardiomyocytes permeabilized with saponin (50 μg/ml) for 1 min in internal solution containing (in mM) 10 HEPES, 1 EGTA, 1 free MgCl2 (with free [Ca^2+] adjusted to 50 nM using MaxChelator), 120 K-aspartate, 10 reduced glutathione, 5 ATP, 5 phosphocreatine di-Na, creatine phosphokinase 5 U/ml, and dextran (MW: 40,000) 8% at pH 7.20. Cardiomyocytes were immediately washed with saponin-free internal solution and then superfused with internal solution (50 nM Ca^2+free) containing the Ca^2+-sensitive indicator, Fluo-4 pentapotassium salt (10 μM, Invitrogen). Ca^2+ spark parameters were analyzed over a 10 s period from each line scan recording. Ca^2+ transients and diastolic Ca^2+ release events were recorded from intact ventricular cardiomyocytes loaded for 30 min at room temperature with Fluo-4 AM (10 μM, Invitrogen) and Pluronic F-127 (0.02%, Invitrogen) followed by wash and de-esterification for 30 min in Tyrode’s solution containing (in mM) NaCl 140, KCl 4, CaCl2 1.8, MgCl2 1, HEPES 5, Na-HEPES 5, and glucose 5.5 at pH 7.40. To evoke Ca^2+ transients, intact cardiomyocytes were paced at 1 Hz in a field stimulation chamber (Warner Instruments) at room temperature. Ca^2+ activity was assessed in paired fashion before and after incubating cardiomyocytes with fusidic acid (FA) for 6 min at each concentration. ImageJ was used for image processing and analysis, and Ca^2+ sparks were analyzed using the SparkMaster plugin ([67]). Chemical reagents were purchased from Sigma-Aldrich unless indicated otherwise.
# Statistical analyses were performed using GraphPad Prism 9. Normality was verified using the D’Agostino & Pearson test. Repeated measures (at different FA concentrations) one-way ANOVA with Geisser–Greenhouse correction followed by the Dunnett’s multiple comparison post-hoc test was used for normally distributed data to determine individual differences in matched responses. […]
# NTR of mouse RyR2 = target: T2, NTR of mouse RyR2 (Mus musculus, UniProt E9Q401); experiment: Surface plasmon resonance with isolated NTR (His-MBP tag); type: binding
# T2 construct: The NTR of mouse RyR2 (residues 1–547) was cloned and expressed as previously described; made in house; host or cells: Escherichia coli Rosetta (DE3) pLacI
# T2 sequence (E9Q401 1-547): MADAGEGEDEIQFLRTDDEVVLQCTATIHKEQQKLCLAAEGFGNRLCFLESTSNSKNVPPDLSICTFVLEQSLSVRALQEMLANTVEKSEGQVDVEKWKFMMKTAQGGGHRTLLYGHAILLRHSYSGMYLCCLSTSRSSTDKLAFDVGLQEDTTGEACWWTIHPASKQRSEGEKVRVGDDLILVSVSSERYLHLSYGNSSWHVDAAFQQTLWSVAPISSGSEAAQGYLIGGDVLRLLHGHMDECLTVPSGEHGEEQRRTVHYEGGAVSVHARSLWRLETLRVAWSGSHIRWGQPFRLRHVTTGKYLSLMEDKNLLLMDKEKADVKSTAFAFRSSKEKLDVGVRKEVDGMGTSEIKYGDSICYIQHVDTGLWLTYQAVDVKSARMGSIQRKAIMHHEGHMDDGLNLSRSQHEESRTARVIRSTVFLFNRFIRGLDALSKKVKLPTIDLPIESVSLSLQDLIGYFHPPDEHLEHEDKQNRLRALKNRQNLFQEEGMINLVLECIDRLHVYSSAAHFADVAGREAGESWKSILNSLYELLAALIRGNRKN
# Procedure: The SPR experiments were performed using a BIACORE S200 (GE Healthcare) equipped with a NTA sensor chip. NTR with His and MBP tags (>90% pure based on SDS-PAGE) was immobilized using affinity of the His tag to the sensor surface. The surfaces of the sensor chip were activated with 0.5 mM Ni^2+ solution at a flow rate of 10 μl/min. The NTR at a concentration of 30 μg/ml in 10 mM HEPES, 150 mM KCl, pH 7.4, was immobilized on flow cell 2; flow cell 1 was left blank to serve as a reference surface. To collect kinetic binding data, the hits in the running buffer (10 mM HEPES, 150 mM NaCl, 0.05% P20, pH 7.4, 1% DMSO) were injected over the two flow cells at concentrations of 1.5625, 3.125, 6.25, 12.5, 25, 50, and 100 μM at a flow rate of 30 μl/min and at a temperature of 25 °C. The complex was allowed to associate and dissociate for 60 and 60 s, respectively. The surfaces were regenerated with a 120 s injection of 350 mM EDTA. Data were collected at a rate of 1 Hz. The data were fit using the global data analysis option available within Biacore S200 Evaluation 1.0 software.
# [1] = single-cycle kinetics, global analysis
# T1 sequence (E9Q401 whole entry): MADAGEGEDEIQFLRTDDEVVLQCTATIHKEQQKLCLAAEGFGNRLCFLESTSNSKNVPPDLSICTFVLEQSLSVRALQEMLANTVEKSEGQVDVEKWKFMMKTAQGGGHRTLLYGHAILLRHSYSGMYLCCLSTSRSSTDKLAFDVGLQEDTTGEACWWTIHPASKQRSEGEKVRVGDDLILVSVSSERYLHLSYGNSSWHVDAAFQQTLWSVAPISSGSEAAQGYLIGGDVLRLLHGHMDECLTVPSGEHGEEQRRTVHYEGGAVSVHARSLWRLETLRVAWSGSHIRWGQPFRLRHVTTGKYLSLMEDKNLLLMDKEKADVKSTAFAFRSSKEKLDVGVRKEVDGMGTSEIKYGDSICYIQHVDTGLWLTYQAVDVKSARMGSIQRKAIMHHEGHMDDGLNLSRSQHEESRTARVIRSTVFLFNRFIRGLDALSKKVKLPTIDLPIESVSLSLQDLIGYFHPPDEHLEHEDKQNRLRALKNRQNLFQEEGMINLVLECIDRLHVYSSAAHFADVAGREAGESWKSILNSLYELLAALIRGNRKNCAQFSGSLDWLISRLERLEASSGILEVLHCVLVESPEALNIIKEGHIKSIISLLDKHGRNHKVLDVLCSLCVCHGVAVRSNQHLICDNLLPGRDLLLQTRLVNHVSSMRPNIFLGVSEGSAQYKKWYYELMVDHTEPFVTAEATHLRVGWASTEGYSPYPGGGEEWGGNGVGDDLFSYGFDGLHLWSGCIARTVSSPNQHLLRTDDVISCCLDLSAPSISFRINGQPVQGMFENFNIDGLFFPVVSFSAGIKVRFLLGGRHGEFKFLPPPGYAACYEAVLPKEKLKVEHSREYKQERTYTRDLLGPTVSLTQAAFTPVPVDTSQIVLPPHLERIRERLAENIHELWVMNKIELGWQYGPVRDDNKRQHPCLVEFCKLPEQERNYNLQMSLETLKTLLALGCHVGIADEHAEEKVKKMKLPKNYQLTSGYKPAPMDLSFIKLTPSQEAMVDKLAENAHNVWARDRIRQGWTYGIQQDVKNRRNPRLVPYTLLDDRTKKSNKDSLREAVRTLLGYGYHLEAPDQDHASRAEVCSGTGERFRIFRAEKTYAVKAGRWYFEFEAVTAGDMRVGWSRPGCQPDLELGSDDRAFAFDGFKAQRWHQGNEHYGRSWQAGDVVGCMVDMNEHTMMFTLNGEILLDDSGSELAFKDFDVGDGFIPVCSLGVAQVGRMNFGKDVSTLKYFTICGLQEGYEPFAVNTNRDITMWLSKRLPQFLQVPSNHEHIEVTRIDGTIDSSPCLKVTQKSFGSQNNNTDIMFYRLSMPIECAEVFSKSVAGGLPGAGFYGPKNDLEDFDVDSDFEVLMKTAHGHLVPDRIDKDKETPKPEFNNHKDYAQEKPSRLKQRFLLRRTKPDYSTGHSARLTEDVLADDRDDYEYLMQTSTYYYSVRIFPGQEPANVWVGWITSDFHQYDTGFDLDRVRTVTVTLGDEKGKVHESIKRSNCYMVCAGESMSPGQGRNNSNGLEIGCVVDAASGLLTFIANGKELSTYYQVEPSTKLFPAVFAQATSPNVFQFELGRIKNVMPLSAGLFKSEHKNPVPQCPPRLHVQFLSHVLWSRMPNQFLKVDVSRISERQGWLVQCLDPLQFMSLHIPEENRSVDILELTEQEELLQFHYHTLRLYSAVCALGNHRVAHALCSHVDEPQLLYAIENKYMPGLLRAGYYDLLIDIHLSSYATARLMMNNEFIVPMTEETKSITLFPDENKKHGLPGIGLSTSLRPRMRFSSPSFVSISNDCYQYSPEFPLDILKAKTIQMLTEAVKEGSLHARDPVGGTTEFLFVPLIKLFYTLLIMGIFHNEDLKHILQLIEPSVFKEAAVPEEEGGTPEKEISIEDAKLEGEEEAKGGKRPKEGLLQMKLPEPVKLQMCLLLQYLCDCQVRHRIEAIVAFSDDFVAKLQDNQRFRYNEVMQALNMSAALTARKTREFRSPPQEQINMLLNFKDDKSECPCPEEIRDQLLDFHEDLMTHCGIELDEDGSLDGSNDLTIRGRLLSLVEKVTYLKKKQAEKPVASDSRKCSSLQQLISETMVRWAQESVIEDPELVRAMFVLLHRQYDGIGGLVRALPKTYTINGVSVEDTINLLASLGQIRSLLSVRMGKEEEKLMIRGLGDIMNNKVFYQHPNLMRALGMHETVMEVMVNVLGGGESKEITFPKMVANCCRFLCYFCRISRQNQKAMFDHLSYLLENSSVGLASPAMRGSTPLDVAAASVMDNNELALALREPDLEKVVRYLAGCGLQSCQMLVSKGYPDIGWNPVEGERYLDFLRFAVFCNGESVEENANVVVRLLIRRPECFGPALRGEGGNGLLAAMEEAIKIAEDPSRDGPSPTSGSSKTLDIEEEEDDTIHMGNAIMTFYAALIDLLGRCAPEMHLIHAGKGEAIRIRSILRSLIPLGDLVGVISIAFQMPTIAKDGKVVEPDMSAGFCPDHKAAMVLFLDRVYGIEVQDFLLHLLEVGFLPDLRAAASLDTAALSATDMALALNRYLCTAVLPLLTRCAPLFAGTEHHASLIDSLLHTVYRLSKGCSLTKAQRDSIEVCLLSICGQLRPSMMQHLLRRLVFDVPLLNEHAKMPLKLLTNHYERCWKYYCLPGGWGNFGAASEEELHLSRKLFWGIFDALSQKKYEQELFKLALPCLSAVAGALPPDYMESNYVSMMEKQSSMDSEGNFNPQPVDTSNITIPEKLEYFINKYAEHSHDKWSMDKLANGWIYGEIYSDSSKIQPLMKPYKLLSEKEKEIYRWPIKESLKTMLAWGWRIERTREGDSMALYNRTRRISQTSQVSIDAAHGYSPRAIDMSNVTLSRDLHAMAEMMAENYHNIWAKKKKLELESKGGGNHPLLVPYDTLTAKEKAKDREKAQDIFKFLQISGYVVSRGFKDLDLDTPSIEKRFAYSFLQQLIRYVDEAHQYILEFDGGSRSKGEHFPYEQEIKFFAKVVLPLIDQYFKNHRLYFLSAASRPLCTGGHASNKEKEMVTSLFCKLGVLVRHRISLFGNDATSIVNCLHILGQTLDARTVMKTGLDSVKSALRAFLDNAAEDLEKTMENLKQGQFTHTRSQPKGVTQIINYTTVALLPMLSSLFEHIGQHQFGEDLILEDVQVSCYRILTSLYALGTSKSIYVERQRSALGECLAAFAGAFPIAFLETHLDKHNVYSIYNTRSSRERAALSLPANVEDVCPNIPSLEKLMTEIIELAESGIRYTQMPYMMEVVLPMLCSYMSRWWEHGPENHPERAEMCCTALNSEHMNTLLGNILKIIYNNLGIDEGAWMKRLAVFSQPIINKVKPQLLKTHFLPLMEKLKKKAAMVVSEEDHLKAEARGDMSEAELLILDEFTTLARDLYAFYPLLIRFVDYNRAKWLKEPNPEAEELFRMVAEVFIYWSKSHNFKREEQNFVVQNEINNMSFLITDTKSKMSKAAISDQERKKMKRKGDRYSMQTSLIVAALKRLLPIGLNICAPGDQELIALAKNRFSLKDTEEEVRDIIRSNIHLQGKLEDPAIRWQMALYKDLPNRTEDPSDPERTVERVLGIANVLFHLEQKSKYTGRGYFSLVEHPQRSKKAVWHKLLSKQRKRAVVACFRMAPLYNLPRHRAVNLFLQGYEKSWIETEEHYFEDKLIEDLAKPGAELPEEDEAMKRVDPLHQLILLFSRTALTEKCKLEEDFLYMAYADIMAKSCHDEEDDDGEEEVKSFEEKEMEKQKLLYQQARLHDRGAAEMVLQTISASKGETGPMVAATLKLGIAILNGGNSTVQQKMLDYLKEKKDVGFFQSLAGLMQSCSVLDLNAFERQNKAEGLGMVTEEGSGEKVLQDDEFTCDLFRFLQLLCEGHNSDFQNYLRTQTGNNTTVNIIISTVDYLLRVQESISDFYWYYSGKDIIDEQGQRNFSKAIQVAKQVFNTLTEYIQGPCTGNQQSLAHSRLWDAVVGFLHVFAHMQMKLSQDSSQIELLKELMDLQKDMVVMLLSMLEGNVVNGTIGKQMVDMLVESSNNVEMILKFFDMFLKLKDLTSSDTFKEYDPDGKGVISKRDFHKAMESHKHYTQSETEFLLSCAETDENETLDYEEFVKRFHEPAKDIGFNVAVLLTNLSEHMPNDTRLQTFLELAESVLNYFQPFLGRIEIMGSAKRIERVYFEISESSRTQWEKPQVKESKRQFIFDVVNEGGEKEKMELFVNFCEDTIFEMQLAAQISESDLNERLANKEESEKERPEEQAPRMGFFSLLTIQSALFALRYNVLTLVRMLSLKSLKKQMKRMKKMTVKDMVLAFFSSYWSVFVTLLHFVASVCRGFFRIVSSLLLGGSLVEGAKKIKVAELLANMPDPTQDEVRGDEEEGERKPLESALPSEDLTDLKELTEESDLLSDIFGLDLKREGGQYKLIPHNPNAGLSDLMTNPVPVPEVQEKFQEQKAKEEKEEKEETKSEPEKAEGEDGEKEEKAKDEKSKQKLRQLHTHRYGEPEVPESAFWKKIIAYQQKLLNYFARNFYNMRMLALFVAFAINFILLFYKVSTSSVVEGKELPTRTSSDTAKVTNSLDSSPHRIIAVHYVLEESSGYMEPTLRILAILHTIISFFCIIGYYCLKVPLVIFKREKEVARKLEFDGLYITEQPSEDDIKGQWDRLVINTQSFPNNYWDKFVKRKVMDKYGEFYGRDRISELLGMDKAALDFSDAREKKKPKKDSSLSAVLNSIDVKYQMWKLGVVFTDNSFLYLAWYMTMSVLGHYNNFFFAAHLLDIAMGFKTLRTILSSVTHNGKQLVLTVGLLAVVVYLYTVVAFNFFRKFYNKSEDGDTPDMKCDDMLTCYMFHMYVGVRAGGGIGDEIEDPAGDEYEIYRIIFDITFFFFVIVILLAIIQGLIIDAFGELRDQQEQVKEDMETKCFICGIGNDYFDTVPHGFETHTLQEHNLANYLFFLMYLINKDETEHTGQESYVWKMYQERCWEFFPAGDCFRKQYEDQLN
smiles,measurement,setting,value
"CC(=O)O[C@H]1C[C@@]2(C)[C@@H](C[C@@H](O)[C@H]3[C@@]4(C)CC[C@@H](O)[C@@H](C)[C@@H]4CC[C@@]32C)/C1=C(\CCC=C(C)C)C(=O)O [FA, (2Z)-2-[(3R,4S,5S,8S,9S,10S,11R,13R,14S,16S)-16-acetyloxy-3,11-dihydroxy-4,8,10,14-tetramethyl-2,3,4,5,6,7,9,11,12,13,15,16-dodecahydro-1H-cyclopenta[a]phenanthren-17-ylidene]-6-methylhept-5-enoic acid]",Ca2+ spark signal mass relative to 0 nM FA,"RyR2; 1 μM FA, p = 0.011",decreased significantly
same,Ca2+ spark signal mass relative to 0 nM FA,"RyR2; 10 μM FA, p = 0.001",decreased significantly
same,Ca2+ spark frequency over [FA] relative to 0 nM FA,"RyR2; [Ca2+]i 50 nM, 6 min exposures",did not detect significant differences
same,"Ca2+ spark signal mass, meancell slope","RyR2; increasing [FA], p = 0.0007",−0.336 F/F0 × μm × s/log10(μM)
same,"Ca2+ spark frequency, meancell slope","RyR2; increasing [FA], p = 0.115",−0.082 sparks/100 μm/s/log10(μM)
same,KD (SPR),NTR of mouse RyR2; NTR with His-MBP tag,low micromolar
same,"KD (SPR), another component of heterogenous model fit",NTR of mouse RyR2; [1],nanomolar
same,"KD (SPR), one component of heterogenous model fit",NTR of mouse RyR2; [1],micromolar
